Drawing on PMC7326984, “Synthesis, in vitro urease inhibitory potential and molecular docking study of benzofuran-based-thiazoldinone analogues” (Scientific Reports, 2020), this text covers IC50 for one compound.

The target in the experiment is urease enzyme (Canavalia ensiformis, UniProt P07374). Type of experiment: biochemical. To be noted: read-out: IC50 values (urease inhibition); indophenol method, pH 6.8, 30 °C, 15 min incubation, triplicate; thiourea as standard. On the procedure:
25 µL of enzyme and 55 µL of buffer was added to 100 mM urea that were incubated with test scaffolds 5 µL (0.5 mM concentration) for 15 min at 30 °C in 96-well plates. Urea concentrations were changed from 2–24 mM to study kinetics. As described by Weatherburn the urease potential was assessed by measuring the ammonia production with using indophenol method. Concisely, 70 µL of alkali reagent (0.1% active chloride NaOCl and 0.5 w/v NaOH) and 45 µL of reagent phenol (0.005% w/v sodium nitroprusside and 1% w/v phenol) were added to each and every well plate. Using microplate reader (Molecular Device, USA) the increase in absorbance at 630 nm was measured after 50 min. Using 200 µL as final volume the reading was performed as triplicate. With help of SoftMaxPro software (Molecular Device, USA) the results (per min absorbance change) were calculated. At pH 6.8 the entire assay was performed. With the help of 100 − (ODtest well/ODcontrol) × 100 the percentage inhibition was calculated.

urease enzyme, sequence (P07374 whole entry, looked up): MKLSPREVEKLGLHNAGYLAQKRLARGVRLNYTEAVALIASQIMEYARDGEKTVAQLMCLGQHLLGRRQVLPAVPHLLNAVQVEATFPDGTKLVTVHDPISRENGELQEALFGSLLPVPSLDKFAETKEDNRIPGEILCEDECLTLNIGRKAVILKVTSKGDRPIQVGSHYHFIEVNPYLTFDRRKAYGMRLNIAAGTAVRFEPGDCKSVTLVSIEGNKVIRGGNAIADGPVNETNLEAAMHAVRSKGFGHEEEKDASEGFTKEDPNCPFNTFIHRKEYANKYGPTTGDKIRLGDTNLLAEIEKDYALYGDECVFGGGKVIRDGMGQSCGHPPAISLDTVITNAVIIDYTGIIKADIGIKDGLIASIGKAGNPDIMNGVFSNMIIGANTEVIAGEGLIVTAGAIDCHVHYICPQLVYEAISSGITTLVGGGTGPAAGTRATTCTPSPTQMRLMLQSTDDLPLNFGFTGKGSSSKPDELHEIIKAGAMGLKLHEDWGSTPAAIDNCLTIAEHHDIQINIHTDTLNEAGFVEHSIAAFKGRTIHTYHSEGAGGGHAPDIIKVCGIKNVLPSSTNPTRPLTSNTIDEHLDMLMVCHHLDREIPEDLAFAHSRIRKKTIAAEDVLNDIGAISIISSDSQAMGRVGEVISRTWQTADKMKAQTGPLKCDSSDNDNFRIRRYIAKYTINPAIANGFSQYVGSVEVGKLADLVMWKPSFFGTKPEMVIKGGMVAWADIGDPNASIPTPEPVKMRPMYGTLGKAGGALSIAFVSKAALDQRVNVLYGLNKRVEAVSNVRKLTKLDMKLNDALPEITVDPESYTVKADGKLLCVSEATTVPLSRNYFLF

What is called IC50 is the midpoint of a concentration-inhibition curve. Turning to `O=C(NN1C(=O)SCC1c1ccc(Cl)cc1Cl)c1cc2c(F)cc([N+](=O)[O-])cc2o1` (stereo not shown) [Compound 8, N-(4-(2,4-dichlorophenyl)-2-oxothiazolidin-3-yl)-4-fluoro-6-nitrobenzofuran-2-carboxamide], the IC50 worked out at 2900 ± 10 nM.
